Source: patent US10669235B2, “Indole derivatives and their use as protein kinase inhibitors” (RESPIVERT LIMITED, priority 2016, dated 2020)
Where a name gives a salt, the structure may show the parent alone.

Key:
PDGFRβ [1] = biological target: T1, PDGFRβ (Homo sapiens (Human), UniProt P09619); assay: PDGFRβ enzyme inhibition (ADP-Glo assay); format: biochemical; conditions: mean, n = 2 (nintedanib n = 34)
MRC5 cells = assay: Cell viability assay in MRC5 cells (MTT)
PDGFRβ [2] = biological target: T1, PDGFRβ; assay: PDGF-BB induced phosphorylation of PDGFRβ in fibroblasts (MRC5, HTRF); format: cell-based; conditions: MRC5 cells, PDGFBB stimulation; read-out: PDGFBB-induced PDGFRβ phosphorylation in MRC5 cells (IC50)
PAMPA permeability assay = format: in vitro ADME; conditions: pH 7, PAMPA; for Papp at 5 h, 10 µM: pH 7, 10 μM

T1 sequence (P09619 33-1106): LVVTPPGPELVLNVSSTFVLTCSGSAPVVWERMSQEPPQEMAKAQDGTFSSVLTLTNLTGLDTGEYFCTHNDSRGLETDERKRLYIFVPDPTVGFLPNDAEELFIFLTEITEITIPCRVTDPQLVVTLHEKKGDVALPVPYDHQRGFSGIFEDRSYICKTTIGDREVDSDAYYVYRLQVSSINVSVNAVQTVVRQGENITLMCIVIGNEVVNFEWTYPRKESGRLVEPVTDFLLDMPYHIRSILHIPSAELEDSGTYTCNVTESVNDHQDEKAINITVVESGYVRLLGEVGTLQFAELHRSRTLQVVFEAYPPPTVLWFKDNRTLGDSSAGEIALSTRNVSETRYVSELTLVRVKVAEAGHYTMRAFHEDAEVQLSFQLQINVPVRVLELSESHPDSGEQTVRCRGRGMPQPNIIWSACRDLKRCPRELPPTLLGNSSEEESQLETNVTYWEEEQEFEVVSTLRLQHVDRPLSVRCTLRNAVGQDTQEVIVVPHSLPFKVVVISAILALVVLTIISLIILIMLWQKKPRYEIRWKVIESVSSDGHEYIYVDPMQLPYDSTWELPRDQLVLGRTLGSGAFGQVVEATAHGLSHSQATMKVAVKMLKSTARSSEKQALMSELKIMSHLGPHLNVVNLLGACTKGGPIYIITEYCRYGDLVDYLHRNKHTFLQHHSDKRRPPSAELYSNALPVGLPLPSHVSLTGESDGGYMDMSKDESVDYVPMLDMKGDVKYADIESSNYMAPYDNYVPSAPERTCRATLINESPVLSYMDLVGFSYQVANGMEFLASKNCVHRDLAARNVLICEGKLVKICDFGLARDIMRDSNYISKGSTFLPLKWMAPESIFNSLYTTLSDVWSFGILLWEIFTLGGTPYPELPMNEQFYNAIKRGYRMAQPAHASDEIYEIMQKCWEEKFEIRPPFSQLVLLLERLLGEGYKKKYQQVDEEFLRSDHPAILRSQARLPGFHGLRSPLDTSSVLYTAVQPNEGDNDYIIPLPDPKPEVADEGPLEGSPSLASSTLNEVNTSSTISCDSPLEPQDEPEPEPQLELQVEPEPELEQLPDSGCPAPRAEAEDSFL

| SMILES | Ki (PDGFRβ [1]) [nM] | Cell viability at 100 nM (%) (MRC5 cells) | Cell viability at 300 nM (%) (MRC5 cells) | Cell viability at 1000 nM (%) (MRC5 cells) | IC50 (PDGFRβ [2]) [nM] | recovery at 5 hr, 10 μM (PAMPA permeability assay) [%] | Papp at 5 h, 10 µM (PAMPA permeability assay) [×10⁻⁶ cm/s] |
| --- | --- | --- | --- | --- | --- | --- | --- |
| COC(=O)c1cc2c(cc1C)/C(=C(/Nc1ccc(C(=O)NCCCN3CCOCC3)cc1)c1ccccc1)C(=O)N2 [Example 29, (Z)-Methyl 5-methyl-3-(((4-((3-morpholinopropyl)carbamoyl)phenyl)amino)(phenyl)methylene)-2-oxoindoline-6-carboxylate] | 11.2 | 116.9 | 72.5 | 60.8 | 3.65 | 72.1 | 0.373 |
| COC(=O)c1cc2c(cc1C)/C(=C(/Nc1ccc(C(=O)N3CCC4(CC3)C(=O)NCCN4C)cc1)c1ccccc1)C(=O)N2 [Example 30, (Z)-Methyl 5-methyl-3-(((4-(1-methyl-5-oxo-1,4,9-triazaspiro[5.5]undecane-9-carbonyl)phenyl)amino)(phenyl)methylene)-2-oxoindoline-6-carboxylate] | 10 | 107.2 | 85.3 | 16.4 | 6.02 | 87.2 | 0.0235 |
| COC(=O)c1cc2c(cc1C)/C(=C(/Nc1ccc(C(=O)N3CCC(C(=O)NCCN(C)C)CC3)cc1)c1ccccc1)C(=O)N2 [Example 31, (Z)-Methyl 3-(((4-(4-((2-(dimethylamino)ethyl)carbamoyl)piperidine-1-carbonyl)phenyl)amino)(phenyl)methylene)-5-methyl-2-oxoindoline-6-carboxylate, 0.4 formate] | 4.83 | 69.3 | 47.3 | 34.3 | 5.52 | 66.2 | 0.00531 |
| COC(=O)c1cc2c(cc1C)/C(=C(/Nc1ccc(C(=O)N(CCO)CCN(C)C)cc1)c1ccccc1)C(=O)N2 [Example 32, (Z)-Methyl 3-(((4-((2-(dimethylamino)ethyl)(2-hydroxyethyl)carbamoyl)phenyl)amino)(phenyl)methylene)-5-methyl-2-oxoindoline-6-carboxylate, 0.3 formate] | 5.02 | 99.3 | 129.3 | 49.4 | 4.53 | 59.6 | 0.0217 |
| COC(=O)c1cc2c(cc1C)/C(=C(/Nc1ccc(C(=O)N3CC[C@@H](CN(C)C)[C@H](O)C3)cc1)c1ccccc1)C(=O)N2 [Example 33, (Z)-Methyl 3-(((4-((3S,4S)-4-((dimethylamino)methyl)-3-hydroxypiperidine-1-carbonyl)phenyl)amino)(phenyl)methylene)-5-methyl-2-oxoindoline-6-carboxylate] | 6.82 | 86.6 | 63.1 | 19.8 | 2.32 | 69.1 | 0.0269 |
| COC(=O)c1cc2c(cc1C)/C(=C(/Nc1ccc(C(=O)NCCN3CCCN(C(C)=O)CC3)cc1)c1ccccc1)C(=O)N2 [Example 34, (Z)-Methyl 3-(((4-((2-(4-acetyl-1,4-diazepan-1-yl)ethyl)carbamoyl)phenyl)amino)(phenyl)methylene)-5-methyl-2-oxoindoline-6-carboxylate] | 14.4 | 82.9 | 74.4 | 16.2 | 4.71 | 41.1 | 0.00748 |
| COCCN(C)CCNC(=O)c1ccc(N/C(=C2\C(=O)Nc3cc(C(=O)OC)c(C)cc32)c2ccccc2)cc1 [Example 35, (Z)-Methyl 3-(((4-((2-((2-methoxyethyl)(methyl)amino)ethyl)carbamoyl)phenyl)amino)(phenyl)methylene)-5-methyl-2-oxoindoline-6-carboxylate, 0.5 formate] | 17 | 99.8 | 122.5 | 99.1 | 17.3 | 79.2 | 10.7 |
| COC(=O)c1cc2c(cc1C)/C(=C(/Nc1ccc(C(=O)NCC3(N(C)C)CCOCC3)cc1)c1ccccc1)C(=O)N2 [Example 36, (Z)-Methyl 3-(((4-(((4-(dimethylamino)tetrahydro-2H-pyran-4-yl)methyl)carbamoyl)phenyl)amino)(phenyl)methylene)-5-methyl-2-oxoindoline-6-carboxylate] | 15.9 | 87.3 | 77.2 | 69.6 | 9.96 | 77.4 | 8.96 |
| COC(=O)c1cc2c(cc1C)/C(=C(/Nc1ccc(C(=O)N3CCC(O)(CN4CCCC4)CC3)cc1)c1ccccc1)C(=O)N2 [Example 37, (Z)-Methyl-3-(((4-(4-hydroxy-4-(pyrrolidin-1-ylmethyl)piperidine-1-carbonyl)phenyl)amino)(phenyl)methylene)-5-methyl-2-oxoindoline-6-carboxylate, formate] | 7.54 | 93.6 | 83.4 | 18.4 | 5.28 | 68.2 | 0.0542 |
| COC(=O)c1cc2c(cc1C)/C(=C(/Nc1ccc(C(=O)N3CCC(CO)(CN(C)C)CC3)cc1)c1ccccc1)C(=O)N2 [Example 38, (Z)-Methyl-3-(((4-(4-((dimethylamino)methyl)-4-(hydroxymethyl)piperidine-1-carbonyl)phenyl)amino)(phenyl)methylene)-5-methyl-2-oxoindoline-6-carboxylate] | 4.79 | 70.7 | 63 | 4.2 | 1.7 | 70.3 | 0.0269 |
| COCCNC(=O)CN1CCN(C(=O)c2ccc(N/C(=C3\C(=O)Nc4cc(C(=O)OC)c(C)cc43)c3ccccc3)cc2)CC1 [Example 39, (Z)-Methyl-3-(((4-(4-(2-((2-methoxyethyl)amino)-2-oxoethyl)piperazine-1-carbonyl)phenyl)amino)(phenyl)methylene)-5-methyl-2-oxoindoline-6-carboxylate] | 14.1 | 96.2 | 73.3 | 36.7 | 5.95 | 85.7 | 0.633 |
| COC(=O)c1cc2c(cc1C)/C(=C(/Nc1ccc(C(=O)NCC3(N(C)C)CCC3)cc1)c1ccccc1)C(=O)N2 [Example 40, (Z)-Methyl 3-(((4-(((1-(dimethylamino)cyclobutyl)methyl)carbamoyl)phenyl)amino)(phenyl)methylene)-5-methyl-2-oxoindoline-6-carboxylate, 0.3 formate] | 12.8 | 95.4 | 88 | 82.9 | 13.4 | 56 | 26.5 |
| COC(=O)c1cc2c(cc1C)/C(=C(/Nc1ccc(C(=O)N3CCC4(CC3)C(=O)NCCCN4C)cc1)c1ccccc1)C(=O)N2 [Example 43, (Z)-Methyl-5-methyl-3-(((4-(7-methyl-12-oxo-3,7,11-triazaspiro[5.6]dodecane-3-carbonyl)phenyl)amino)(phenyl)methylene)-2-oxoindoline-6-carboxylate] | 25.2 | – | 58.8 | 6.4 | 2.31 | – | 0.865 |
| COC(=O)c1cc2c(cc1C)/C(=C(/Nc1ccc(C(=O)NCCN3CCN(S(C)(=O)=O)CC3)cc1)c1ccccc1)C(=O)N2 [Example 44, (Z)-Methyl-5-methyl-3-(((4-((2-(4-(methylsulfonyl)piperazin-1-yl)ethyl)carbamoyl)phenyl)amino)(phenyl)methylene)-2-oxoindoline-6-carboxylate] | 17.8 | 98.4 | 78.4 | 60.4 | 3.33 | 71.7 | 0.00879 |
| COC(=O)c1cc2c(cc1C)/C(=C(/Nc1ccc(C(=O)N3CCC(O)(CN4CCOCC4)CC3)cc1)c1ccccc1)C(=O)N2 [Example 45, (Z)-Methyl-3-(((4-(4-hydroxy-4-(morpholinomethyl)piperidine-1-carbonyl)phenyl)amino)(phenyl)methylene)-5-methyl-2-oxoindoline-6-carboxylate] | 15.1 | 80.1 | 71.7 | 62.8 | 2.42 | 77 | 0.0893 |
